# Values of other authors as cited in patent US20160235072A1, “ANTIMICROBIAL POLYMER CONCENTRATES AND COMPOUNDS” (POLYONE CORPORATION, priority 2013, published 2016).
# Tested on: pathogens from the Streptococcus and Staphylococcus genera
substance,measurement,value
Zinc pyrithione,effectiveness against pathogens,effective against many pathogens
